The values below come from ChEMBL document CHEMBL1201862, “PubChem BioAssay data set” (2004).

Counter-ions that a name gives are not always drawn.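 Compound exposure: 48 hours, 5 concentrations, 96-well plates. Abbreviation: GI50, concentration required for 50% inhibition of growth.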 Activity calls are given as the source filed them. No stated cut-off is given here; in the data, active = GI50 up to about 1.1 µM and inactive = higher. Some results are limits rather than exact numbers.

Among the test systems are IGROV-1; MOLT-4; M14; A549; ACHN; OVCAR-4; HOP-62; COLO 205; NCI-H460; BT-549; KM12; Malme-3M; PC-3; SK-MEL-28; NCI/ADR-RES; TK-10; OVCAR-3; UACC-62; K562.
Common to all, as to test: inhibition of tumour cell growth, NCI panel, 48 h

As for `Cc1c(F)c(N)c2c(=O)cc(-c3ccc(NC(=O)C(N)CCCNC(=N)N)c(F)c3)oc2c1F` (configuration not stated), the GI50 in the experiment on IGROV-1 is 0.0759 µM (active); in the experiment on MOLT-4, 34.6 µM (inactive); with M14, 31.7 µM (inactive); in the experiment with A549, 3.68 µM (inactive); with ACHN, 19.7 µM (inactive); in the experiment on OVCAR-4, 0.141 µM (active). In addition, the GI50 in the experiment with HOP-62 is > 52.2 µM (inactive); in the experiment on COLO 205, 23.8 µM (inactive); in the experiment on NCI-H460 it was 0.146 µM (active); in the experiment with BT-549, 21.8 µM (inactive); in the experiment on KM12, 27 µM (inactive); in the experiment with Malme-3M, 27.5 µM (inactive). Moreover, the GI50 is 30.5 µM (inactive) with PC-3, 24.7 µM (inactive) in the experiment with SK-MEL-28, 23.9 µM (inactive) with NCI/ADR-RES and 0.146 µM (active) in the experiment with TK-10.
With `O=C1c2ccccc2C(=O)c2c1ccc1c2OCO1`, the GI50 is > 100 µM (inactive) in the experiment on IGROV-1; > 100 µM (inactive) with MOLT-4; > 100 µM (inactive) with M14; > 100 µM (inactive) with A549; > 10 µM (inactive) in the experiment on ACHN; > 100 µM (inactive) in the experiment with OVCAR-4. Moreover, the GI50 with OVCAR-3, in the experiment with HOP-62, in the experiment with UACC-62, with COLO 205, in the experiment on BT-549 and in the experiment with KM12 was > 100 µM (inactive) each time. Besides, the GI50 in the experiment on Malme-3M, in the experiment with PC-3, in the experiment on SK-MEL-28, with NCI/ADR-RES and with TK-10 was > 100 µM (inactive) in each case.
In the case of `Cc1ccc(-c2c(C#N)c(-c3ccccc3)n(NS(=O)(=O)c3ccc(C)cc3)c(=O)c2C#N)cc1`, the GI50 is 36.7 µM (inactive) with IGROV-1; 19.8 µM (inactive) in the experiment with MOLT-4; 74.1 µM (inactive) in the experiment on M14; 55.8 µM (inactive) in the experiment on A549; 38 µM (inactive) with ACHN; 43.5 µM (inactive) in the experiment on OVCAR-4. Also, the GI50 in the experiment on HOP-62 is 41.9 µM (inactive); with UACC-62, 43.8 µM (inactive); in the experiment with COLO 205 it was > 100 µM (inactive); with NCI-H460, 34.3 µM (inactive); in the experiment with BT-549 it was 22.9 µM (inactive); with KM12 it was 27.4 µM (inactive). Also, the GI50 in the experiment with K562 is 48 µM (inactive); in the experiment with Malme-3M, 38.6 µM (inactive); in the experiment with PC-3, 36.6 µM (inactive); in the experiment with SK-MEL-28 it was 52.1 µM (inactive); in the experiment on NCI/ADR-RES it was 96.4 µM (inactive); with TK-10, 55.3 µM (inactive).
`CCOC(=O)C1C(=O)C=C(c2cc(C)ccc2O)CC1c1cccc(Br)c1` (configuration not stated): the GI50 is 12.6 µM (inactive) in the experiment with IGROV-1; 16 µM (inactive) in the experiment with MOLT-4; 17.4 µM (inactive) in the experiment on M14; 20.1 µM (inactive) in the experiment on A549; 18.7 µM (inactive) with ACHN; 0.075 µM (active) in the experiment with OVCAR-4. The GI50 in the experiment on OVCAR-3 was 21.5 µM (inactive); in the experiment on HOP-62 it was 46.7 µM (inactive); in the experiment with UACC-62 it was 14 µM (inactive); with COLO 205 it was 16.2 µM (inactive); in the experiment with NCI-H460 it was 19.5 µM (inactive); in the experiment with BT-549 it was 24.9 µM (inactive). For the same compound, the GI50 in the experiment on KM12 is 13.2 µM (inactive); in the experiment on K562, 11.7 µM (inactive); with Malme-3M, 16.3 µM (inactive); with PC-3, 7.8 µM (inactive); in the experiment with NCI/ADR-RES, 13.4 µM (inactive); with TK-10, 17.7 µM (inactive).
As for `Nn1c(CCCCCCCCc2nnc(COc3ccc(Cl)cc3)n2N)nnc1COc1ccc(Cl)cc1`, the GI50 in the experiment with IGROV-1 is > 100 µM (inactive); in the experiment with MOLT-4, 49.5 µM (inactive); with M14, > 100 µM (inactive); with A549, > 100 µM (inactive); with ACHN, > 100 µM (inactive); in the experiment with OVCAR-4 it was > 100 µM (inactive). For the same compound, the GI50 in the experiment on UACC-62, in the experiment on COLO 205, in the experiment with NCI-H460, in the experiment with BT-549, in the experiment on KM12 and in the experiment with K562 was > 100 µM (inactive) in each case. Further, the GI50 in the experiment with Malme-3M is > 100 µM (inactive); with PC-3, 68.2 µM (inactive); in the experiment with SK-MEL-28 it was > 100 µM (inactive); in the experiment on NCI/ADR-RES it was > 100 µM (inactive); in the experiment on TK-10 it was 78 µM (inactive).
As to `O=C(O)Cn1ccc(=O)c2c([N+](=O)[O-])cccc21`, the GI50 with IGROV-1, in the experiment with MOLT-4, with M14, in the experiment with A549, in the experiment with ACHN and with OVCAR-3 was > 100 µM (inactive) in each case. The GI50 with HOP-62, with UACC-62, with COLO 205, with NCI-H460, in the experiment with BT-549 and in the experiment with KM12 was > 100 µM (inactive) in each case. Also, the GI50 in the experiment on K562, in the experiment on Malme-3M, in the experiment with PC-3, with SK-MEL-28, in the experiment on NCI/ADR-RES and with TK-10 was > 100 µM (inactive) throughout.
As to `[B].c1ccc([Si](OCCN2CC2)(c2ccccc2)c2ccccc2)cc1`, the GI50 with IGROV-1 was 12.9 µM (inactive); with MOLT-4 it was 14.3 µM (inactive); in the experiment with M14, 15.9 µM (inactive); in the experiment on A549, 11.9 µM (inactive); in the experiment with ACHN, 14.8 µM (inactive); in the experiment with OVCAR-4 it was 10.8 µM (inactive). The GI50 with OVCAR-3 was 16.4 µM (inactive); with HOP-62, 14.9 µM (inactive); with UACC-62, 14.2 µM (inactive); in the experiment on COLO 205 it was 12.2 µM (inactive); with NCI-H460, 12.5 µM (inactive); in the experiment with BT-549 it was 17.5 µM (inactive). For the same compound, the GI50 is 15.6 µM (inactive) with KM12; 8.3 µM (inactive) with K562; 14.9 µM (inactive) in the experiment on Malme-3M; 13.5 µM (inactive) in the experiment on PC-3; 14.1 µM (inactive) with NCI/ADR-RES; 15.5 µM (inactive) with TK-10.
Consider `NCCc1cc(O)c(O)cc1O` [OXIDOPAMINE HYDROCHLORIDE], for which the GI50 is 19.3 µM (inactive) in the experiment with IGROV-1; 21.8 µM (inactive) with MOLT-4; 20 µM (inactive) in the experiment with M14; 35 µM (inactive) in the experiment with A549; 20.9 µM (inactive) in the experiment with ACHN; 55.7 µM (inactive) with OVCAR-3. Moreover, the GI50 was 22.9 µM (inactive) with HOP-62; 31.2 µM (inactive) in the experiment on UACC-62; 41.9 µM (inactive) with COLO 205; 29.2 µM (inactive) in the experiment with NCI-H460; 16.6 µM (inactive) in the experiment with BT-549; 17.5 µM (inactive) with KM12. Besides, the GI50 with K562 was 21.5 µM (inactive); with Malme-3M it was > 100 µM (inactive); in the experiment with PC-3 it was 33.1 µM (inactive); in the experiment on SK-MEL-28, > 100 µM (inactive); in the experiment on NCI/ADR-RES, 34.4 µM (inactive); in the experiment with TK-10, 62.5 µM (inactive).
Take `COc1cc(CSc2ccc(O)cc2)cc(O)c1O`: the GI50 with IGROV-1 was 35.3 µM (inactive); in the experiment with MOLT-4, 25.3 µM (inactive); in the experiment with M14, 20.5 µM (inactive); with A549, 46.7 µM (inactive); in the experiment on ACHN, 28.1 µM (inactive); in the experiment with OVCAR-3, 26.2 µM (inactive). The GI50 with HOP-62 is 44.7 µM (inactive); in the experiment with UACC-62 it was 22.8 µM (inactive); with COLO 205, 23.3 µM (inactive); in the experiment on NCI-H460 it was > 10 µM (inactive); in the experiment with BT-549, 18.3 µM (inactive); in the experiment with KM12 it was 25.9 µM (inactive). In addition, the GI50 in the experiment on K562 was 31.6 µM (inactive); with Malme-3M, 37.6 µM (inactive); with PC-3 it was 49.3 µM (inactive); in the experiment on SK-MEL-28, 46.2 µM (inactive); in the experiment with NCI/ADR-RES, 23.8 µM (inactive); with TK-10, 53.1 µM (inactive).
On to `CCOC(=O)CSc1nc(-c2ccc(Cl)cc2)c(C#N)c(=O)[nH]1`, for which the GI50 in the experiment on IGROV-1, in the experiment with MOLT-4, with M14, with A549, in the experiment on ACHN and with OVCAR-4 was > 100 µM (inactive) each time. The GI50 in the experiment with OVCAR-3 was > 100 µM (inactive); in the experiment on HOP-62, > 100 µM (inactive); in the experiment on UACC-62, 92 µM (inactive); in the experiment on COLO 205, > 100 µM (inactive); with NCI-H460 it was > 100 µM (inactive); with BT-549, > 100 µM (inactive). Also, the GI50 in the experiment with KM12 was > 100 µM (inactive); with K562 it was 36 µM (inactive); in the experiment on PC-3, > 100 µM (inactive); in the experiment with SK-MEL-28 it was > 100 µM (inactive); with NCI/ADR-RES, > 100 µM (inactive); with TK-10, > 100 µM (inactive).
For the compound `CSc1c(C#N)c(=O)[nH]c2[nH]nc(C)c12`, the GI50 in the experiment on MOLT-4, in the experiment on M14, in the experiment with A549, in the experiment on OVCAR-4, in the experiment on OVCAR-3 and in the experiment on UACC-62 was > 100 µM (inactive) in each case. Besides, the GI50 with COLO 205, in the experiment with NCI-H460, in the experiment on BT-549, in the experiment with KM12, with K562 and with Malme-3M was > 100 µM (inactive) each time. Further, the GI50 in the experiment on PC-3, in the experiment with SK-MEL-28, in the experiment on NCI/ADR-RES and in the experiment on TK-10 was > 100 µM (inactive) in each case.
